# Measured values published in PMC3666986 (Clinical Medicine Insights. Pediatrics, 2010).
# “Also recorded” adds a separate entry of the source. Read-outs that look alike come from different tables or passages of the source.
# What was measured:
# [1] = adults, ciclesonide via HFA-MDI with AeroChamber Plus; cited from earlier work
# [2] = test system: glucocorticoid receptor; conditions: receptor affinity of dexamethasone = 100; cited from earlier work
# [3] = cited from earlier work
# [4] = assay type: in vivo, human; conditions: for AUC: AUCτ, des-CIC in serum, Day 7, τ 24 h, mean ± SEM, N 29; for systemic accumulation: once daily administration of ciclesonide to children, with or without spacer; for time serum concentration detectable/observed after inhalation: present study, treatment not specified (discussion)
# [5] = cited from earlier work; remark: listed apart in the source
# [6] = Advair HFA; cited from earlier work
# [7] = healthy subjects and patients with asthma; cited from earlier work
# [8] = Safety and tolerability monitoring; assay type: in vivo, human
# [9] = Pulmonary function tests; assay type: in vivo, human
# [10] = des-CIC, Treatment A 160 μg with spacer / Treatment C 160 μg no spacer, ANOVA
# [11] = des-CIC, ciclesonide 80 μg with spacer vs 160 μg without spacer
# [12] = des-CIC, ciclesonide 160 μg with spacer vs 160 μg without spacer
smiles,measurement,setting,value
"C[C@]12C=CC(=O)C=C1CC[C@@H]1[C@@H]2[C@@H](O)C[C@@]2(C)[C@H]1C[C@H]1O[C@@H](C3CCCCC3)O[C@]12C(=O)CO [des-CIC, desisobutyryl-ciclesonide]",effect of spacer on PK,[1],did not influence the PK
same,relative glucocorticoid receptor affinity,[2],1200
same,bound to plasma protein,[3],About 99%
same,time up to which serum concentrations were detectable,"[4]; des-CIC, 80 μg ciclesonide (Treatment B), LLOQ 0.01 μg/L",up to 6 h
same,time up to which serum concentration-time profile curves were obtained,"[4]; des-CIC, 160 μg ciclesonide (Treatment A and Treatment C), LLOQ 0.01 μg/L",up to 12 h
same,AUCτ Ratio [% Ref],[4]; [10],127 % Ref
same,Cmax Ratio [% Ref],[4]; [10],155 % Ref
same,dose-normalized Cmax higher with spacer than without spacer,[4]; [11],63%
same,dose-normalized systemic exposure (AUCτ) higher with spacer than without spacer,[4]; [11],26%
same,dose-normalized Cmax higher with spacer than without spacer,[4]; [12],55%
same,dose-normalized systemic exposure (AUCτ) higher with spacer than without spacer,[4]; [12],27%
same,AUC,"[4]; human, serum, inhaled, 80 ug, Treatment B 80 μg CIC with spacer",0.316 ± 0.022 ng·h/mL
same,AUC,"[4]; human, serum, inhaled, 160 ug, Treatment C 160 μg CIC no spacer",0.542 ± 0.042 ng·h/mL
same,Tmax,"[4]; human, serum, inhaled, tmax, des-CIC, similar for all treatments",42 min
same,systemic accumulation,[4],does not lead to systemic accumulation
same,time serum concentration detectable/observed after inhalation,[4],up to 12 h
same,oral bioavailability,[5],less than 1%
CCC(=O)O[C@]1(C(=O)SCF)[C@H](C)C[C@H]2[C@@H]3C[C@H](F)C4=CC(=O)C=C[C@]4(C)[C@@]3(F)[C@@H](O)C[C@@]21C [fluticasone propionate],increase of AUC0–last with spacer,[6],406%
same,increase of Cmax with spacer,[6],210%
CC(C)C(=O)OCC(=O)[C@@]12O[C@H](C3CCCCC3)O[C@@H]1C[C@H]1[C@@H]3CCC4=CC(=O)C=C[C@]4(C)[C@H]3[C@@H](O)C[C@@]12C [ciclesonide],bound to plasma protein,[3],About 99%
same,systemic accumulation,[4],does not lead to systemic accumulation
same,time up to which serum concentrations were detectable,"[4]; parent ciclesonide, Treatment A and C (160 μg), LLOQ 0.01 μg/L",up to 3 h
same,time up to which serum concentrations were measurable,"[4]; parent ciclesonide, Treatment B (80 μg with spacer), LLOQ 0.01 μg/L",up to 1.5 h
same,time serum concentration detectable/observed after inhalation,[4],about 3 h
same,lung deposition,[7],more than 50%
same,oral bioavailability,[5],< 1%
same,relation of AEs to study medication,[8]; assessed by investigator and sponsor,not related
same,tolerability,"[8]; ciclesonide 80 or 160 μg once daily, 7-day periods, with or without spacer",well tolerated
same,number of patients reporting AEs,"[8]; during the three treatment periods, 37 patients",24
same,clinically relevant abnormalities (laboratory values) / adverse drug reactions,[8]; whole study,No clinically relevant abnormalities or adverse drug reactions; also recorded: No clinically relevant abnormalities
same,change in lung function,"[9]; between screening, Day 7 of each treatment period, and study end",did not change to any relevant extent
same,FEV1 at study end,"[9]; mean ± SD, screening value 1.81 ± 0.44",1.76 ± 0.42 L
C[C@@H]1C[C@H]2[C@@H]3CCC4=CC(=O)C=C[C@]4(C)[C@@]3(F)[C@@H](O)C[C@]2(C)[C@@]1(O)C(=O)CO [dexamethasone],relative glucocorticoid receptor affinity,[2],100
